# From article PMC9927415, “Tyrosine Kinase Inhibitors Display Potent Activity against Cryptosporidium parvum” (Microbiology Spectrum, 2022)
# Columns and labels:
# Test in all cases: KINOMEscan competitive binding
# [1] = biological target: T1, RPS6KA2(Kin.Dom.1) (Homo sapiens, UniProt Q15349); details: n=1, read-out: Percent inhibition, RPS6KA2(Kin.Dom.1)
# T1 construct: RPS6KA2(Kin.Dom.1); purchased DiscoverX (KINOMEscan)
# [2] = biological target: T2, ZAP70 (Homo sapiens, UniProt P43403); details: n=1, read-out: Percent inhibition, ZAP70
# T2 construct: purchased DiscoverX (KINOMEscan)
# T2 sequence (P43403 1-619): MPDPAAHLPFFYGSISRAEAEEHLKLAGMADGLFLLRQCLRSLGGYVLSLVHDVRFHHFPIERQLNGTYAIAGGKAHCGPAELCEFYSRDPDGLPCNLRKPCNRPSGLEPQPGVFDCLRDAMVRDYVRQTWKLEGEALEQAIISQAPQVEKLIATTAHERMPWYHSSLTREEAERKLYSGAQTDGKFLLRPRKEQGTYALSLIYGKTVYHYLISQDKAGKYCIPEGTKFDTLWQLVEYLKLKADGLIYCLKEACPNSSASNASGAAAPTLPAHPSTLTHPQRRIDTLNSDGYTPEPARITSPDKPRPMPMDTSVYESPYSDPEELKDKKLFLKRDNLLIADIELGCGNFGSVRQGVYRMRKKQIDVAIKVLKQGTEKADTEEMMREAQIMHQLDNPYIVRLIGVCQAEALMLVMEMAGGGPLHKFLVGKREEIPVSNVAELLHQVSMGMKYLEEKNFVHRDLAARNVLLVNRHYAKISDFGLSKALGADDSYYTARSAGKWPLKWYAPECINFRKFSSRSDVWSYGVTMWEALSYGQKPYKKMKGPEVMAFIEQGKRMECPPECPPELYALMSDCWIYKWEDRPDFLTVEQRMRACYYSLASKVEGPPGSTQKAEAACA
# [3] = biological target: T3, STK36 (Homo sapiens, UniProt Q9NRP7); details: n=1, read-out: Percent inhibition, STK36
# T3 construct: purchased DiscoverX (KINOMEscan)
# T3 sequence (Q9NRP7 1-1315): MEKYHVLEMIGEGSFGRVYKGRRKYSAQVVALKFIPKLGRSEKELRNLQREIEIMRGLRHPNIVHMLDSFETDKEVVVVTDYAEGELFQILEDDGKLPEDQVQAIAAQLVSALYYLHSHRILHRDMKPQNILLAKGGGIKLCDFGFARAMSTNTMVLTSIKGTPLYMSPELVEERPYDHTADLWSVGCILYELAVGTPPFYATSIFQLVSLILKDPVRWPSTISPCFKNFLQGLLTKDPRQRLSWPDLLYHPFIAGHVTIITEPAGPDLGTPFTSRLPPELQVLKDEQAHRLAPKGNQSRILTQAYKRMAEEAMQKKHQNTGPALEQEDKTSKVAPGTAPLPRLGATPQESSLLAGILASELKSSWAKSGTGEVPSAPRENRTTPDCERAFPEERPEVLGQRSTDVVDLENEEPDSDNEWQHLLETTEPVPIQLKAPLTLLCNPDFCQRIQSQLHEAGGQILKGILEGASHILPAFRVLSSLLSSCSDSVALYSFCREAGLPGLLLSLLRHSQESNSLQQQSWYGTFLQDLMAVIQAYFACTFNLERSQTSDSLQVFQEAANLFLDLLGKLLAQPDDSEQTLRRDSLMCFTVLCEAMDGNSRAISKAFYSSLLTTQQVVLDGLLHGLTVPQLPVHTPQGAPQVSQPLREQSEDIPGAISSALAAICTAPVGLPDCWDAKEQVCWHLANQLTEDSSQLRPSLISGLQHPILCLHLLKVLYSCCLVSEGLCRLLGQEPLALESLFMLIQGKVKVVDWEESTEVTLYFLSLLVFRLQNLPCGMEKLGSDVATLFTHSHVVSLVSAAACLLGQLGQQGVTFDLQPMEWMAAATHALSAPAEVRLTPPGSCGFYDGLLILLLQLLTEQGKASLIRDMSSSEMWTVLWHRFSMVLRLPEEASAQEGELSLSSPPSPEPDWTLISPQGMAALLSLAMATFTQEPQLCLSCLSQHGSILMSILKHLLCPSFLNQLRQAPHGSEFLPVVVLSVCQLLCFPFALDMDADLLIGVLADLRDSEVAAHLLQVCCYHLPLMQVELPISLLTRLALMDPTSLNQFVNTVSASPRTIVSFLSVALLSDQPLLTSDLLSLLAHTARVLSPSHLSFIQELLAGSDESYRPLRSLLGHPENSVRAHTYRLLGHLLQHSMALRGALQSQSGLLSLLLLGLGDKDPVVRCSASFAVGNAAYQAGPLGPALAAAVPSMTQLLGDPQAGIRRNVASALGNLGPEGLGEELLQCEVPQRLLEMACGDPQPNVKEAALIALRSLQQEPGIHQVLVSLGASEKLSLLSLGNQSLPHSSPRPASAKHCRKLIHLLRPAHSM
# [4] = biological target: T4, PAK6 (Homo sapiens, UniProt Q9NQU5); details: n=1, read-out: Percent inhibition, PAK6
# T4 construct: purchased DiscoverX (KINOMEscan)
# T4 sequence (Q9NQU5 whole entry): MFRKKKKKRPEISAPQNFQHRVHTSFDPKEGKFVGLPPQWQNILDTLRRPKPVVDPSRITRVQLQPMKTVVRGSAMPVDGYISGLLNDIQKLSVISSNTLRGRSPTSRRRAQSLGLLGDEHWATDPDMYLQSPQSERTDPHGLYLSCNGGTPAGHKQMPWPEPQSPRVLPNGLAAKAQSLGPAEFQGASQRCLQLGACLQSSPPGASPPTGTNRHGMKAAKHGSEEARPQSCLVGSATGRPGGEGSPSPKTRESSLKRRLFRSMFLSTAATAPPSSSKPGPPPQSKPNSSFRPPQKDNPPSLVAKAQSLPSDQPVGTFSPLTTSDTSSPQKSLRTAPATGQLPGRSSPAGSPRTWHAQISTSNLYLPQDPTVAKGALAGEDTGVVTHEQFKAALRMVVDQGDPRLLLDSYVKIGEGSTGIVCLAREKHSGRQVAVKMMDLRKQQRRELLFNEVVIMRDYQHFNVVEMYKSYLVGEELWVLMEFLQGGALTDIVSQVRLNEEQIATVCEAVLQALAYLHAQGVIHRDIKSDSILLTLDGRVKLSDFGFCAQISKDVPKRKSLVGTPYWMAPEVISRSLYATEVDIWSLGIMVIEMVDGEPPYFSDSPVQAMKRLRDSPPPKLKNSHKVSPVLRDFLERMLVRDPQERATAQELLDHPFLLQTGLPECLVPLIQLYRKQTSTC
# [5] = biological target: T5, TXK (Homo sapiens, UniProt P42681); details: n=1, read-out: Percent inhibition, TXK
# T5 construct: purchased DiscoverX (KINOMEscan)
# T5 sequence (P42681 1-527): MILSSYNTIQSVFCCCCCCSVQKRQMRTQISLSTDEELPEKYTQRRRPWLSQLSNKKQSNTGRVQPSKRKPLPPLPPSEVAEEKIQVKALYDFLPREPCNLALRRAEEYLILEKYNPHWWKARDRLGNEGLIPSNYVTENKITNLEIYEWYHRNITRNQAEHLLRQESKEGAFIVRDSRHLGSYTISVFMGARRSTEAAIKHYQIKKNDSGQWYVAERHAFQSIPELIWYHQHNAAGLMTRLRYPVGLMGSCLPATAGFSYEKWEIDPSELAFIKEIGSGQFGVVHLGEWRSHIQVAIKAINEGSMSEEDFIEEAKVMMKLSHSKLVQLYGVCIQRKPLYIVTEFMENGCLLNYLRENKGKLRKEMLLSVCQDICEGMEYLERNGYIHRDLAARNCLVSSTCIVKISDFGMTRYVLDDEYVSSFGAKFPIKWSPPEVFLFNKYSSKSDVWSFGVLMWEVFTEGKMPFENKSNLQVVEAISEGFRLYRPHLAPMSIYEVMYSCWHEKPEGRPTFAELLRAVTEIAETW
# [6] = biological target: T6, PKAC-alpha (Homo sapiens, UniProt P17612); details: n=1, read-out: Percent inhibition, PKAC-alpha
# T6 construct: purchased DiscoverX (KINOMEscan)
# T1 sequence (Q15349 1-388 limits assumed): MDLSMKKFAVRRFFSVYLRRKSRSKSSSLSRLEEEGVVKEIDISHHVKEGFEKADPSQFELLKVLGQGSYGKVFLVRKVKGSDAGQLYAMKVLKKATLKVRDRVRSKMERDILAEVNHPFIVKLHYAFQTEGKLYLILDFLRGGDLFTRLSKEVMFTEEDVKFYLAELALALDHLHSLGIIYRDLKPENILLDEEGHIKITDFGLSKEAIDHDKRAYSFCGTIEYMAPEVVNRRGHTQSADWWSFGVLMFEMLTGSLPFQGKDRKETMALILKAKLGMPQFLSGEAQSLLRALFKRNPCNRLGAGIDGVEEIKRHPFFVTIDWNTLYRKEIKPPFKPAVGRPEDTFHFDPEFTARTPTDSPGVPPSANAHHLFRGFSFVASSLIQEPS
SMILES,inhibition at 10 µM [1],inhibition at 10 µM [2],inhibition at 10 µM [3],inhibition at 10 µM [4],inhibition at 10 µM [5],inhibition at 10 µM [6]
C[C@@H](Oc1cc(-c2cnc3ccccn23)sc1C(N)=O)c1ccccc1Cl [Compound 8],70%,0%,0%,0%,0%,0%
Cc1ccc(O)cc1N(C)c1ccnc(Nc2cccc(S(N)(=O)=O)c2)n1 [Compound 4],0%,0%,99.3%,94.3%,100%,68.9%
COc1cc(Nc2nccc(-c3sc(N)nc3-c3cccc(NC(=O)c4c(F)cccc4F)c3)n2)cc(OC)c1OC [Compound 7],97.2%,0%,100%,65%,90.4%,0%
CN1CCN(c2ccc(Nc3nccc(-c4cnn5ncccc45)n3)cc2C#N)CC1 [Compound 1],77.6%,0%,100%,92.5%,0%,0%
Fc1cccc(COc2ccc(Nc3ncnc4c3CN(CCN3CCOCC3)CC4)cc2Cl)c1 [Compound 6],0%,0%,0%,0%,0%,0%
Cc1ccc(O)cc1Nc1ccnc(Nc2cccc(C(N)=O)c2)n1 [Compound 3],0%,0%,98.4%,0%,100%,0%
Clc1ccc(Nc2ncc(-c3ccccc3)s2)cc1 [Compound 10],0%,0%,0%,0%,0%,0%
COc1ccc(Nc2nccc(-c3cnn4ncccc34)n2)cc1 [Compound 2],0%,0%,98.8%,82%,0%,0%
c1ccc(COc2cccc(-c3ccnc4[nH]ccc34)c2)cc1 [Compound 9],0%,0%,0%,0%,0%,0%
Nc1ncc2c(-c3ccncc3)c[nH]c2n1 [Compound 11],0%,0%,0%,0%,0%,0%
